Results as given in patent publication US11312727B1, “Macrocyclic flu endonuclease inhibitors” (Janssen BioPharma, Inc., priority 2018, dated 2022).

Tests used:
in vitro = conditions: human, CC50, uninfected A549 cells, CellTiter-Glo
[1] = test system: Influenza strain A549 A/WSN/33 (H1N1); assay: microbe, parasite or virus in culture; format: cell-based; conditions: Influenza A virus, A549, 20 h, A549 cells, influenza A/WSN/33 (H1N1), 20 hours incubation; read-out: A549_A(H1N1) EC50

SMILES	CC50 (in vitro) [µM]	EC50 [1] [µM]
C[C@H]1/C=C/COc2cc(F)c(F)c3c2[C@@H](c2ccccc2SC3)N2CN1C(=O)c1c(O)c(=O)ccn12 (single isomer, unassigned) [Compound 162B, (9*S,17a*S,*E)-24,25-difluoro-12-hydroxy-9-methyl-2,6,9,17a-tetrahydro-3,4-(epiprop[1]en[1]yl[3]ylidene)-10,17-methanobenzo[6,7]thiepino[4,5-c]pyrido[1,2-f][1]oxa[5,6,9]triazacyclotridecine-11,13-dione]	> 0.1	0.00023
C[C@@H]1/C=C\COc2cc(F)c(F)c3c2[C@H](c2ccccc2SC3)N2CN1C(=O)c1c(O)c(=O)ccn12 (single isomer, unassigned) [Compound 162C, (13*R,21a*R,*Z)-24,25-difluoro-16-hydroxy-13-methyl-6,10,13,21a-tetrahydro-7,8-(epiprop[1]en[1]yl[3]ylidene)-14,21-methanobenzo[6,7]thiepino[4,5-c]pyrido[1,2-f][1]oxa[5,6,9]triazacyclotridecine-15,17-dione]	> 0.1	0.01
C[C@H]1/C=C\COc2cc(F)c(F)c3c2C(c2ccccc2SC3)N2CN1C(=O)c1c(O)c(=O)ccn12 (single isomer, unassigned) [Compound 162D, (13*S,21a*S,*Z)-24,25-difluoro-16-hydroxy-13-methyl-6,10,13,21a-tetrahydro-7,8-(epiprop[1]en[1]yl[3]ylidene)-14,21-methanobenzo[6,7]thiepino[4,5-c]pyrido[1,2-f][1]oxa[5,6,9]triazacyclotridecine-15,17-dione]	> 0.1	0.00051
O=C1c2c(O)c(=O)ccn2N2CN1[C@@H](C(F)F)/C=C/COc1cccc3c1[C@@H]2c1ccccc1SC3 (single isomer, unassigned) [Compound 163BA, (9*R,17a*R,*E)-9-(difluoromethyl)-12-hydroxy-2,6,9,17a-tetrahydro-3,4-(epiprop[1]en[1]yl[3]ylidene)-10,17-methanobenzo[6,7]thiepino[4,5-c]pyrido[1,2-f][1]oxa[5,6,9]triazacyclotridecine-11,13-dione]	> 0.1	> 0.05
O=C1c2c(O)c(=O)ccn2N2CN1[C@H](C(F)F)/C=C/COc1cccc3c1[C@@H]2c1ccccc1SC3 (single isomer, unassigned) [Compound 163BB, (9*S,17a*R,*E)-9-(difluoromethyl)-12-hydroxy-2,6,9,17a-tetrahydro-3,4-(epiprop[1]en[1]yl[3]ylidene)-10,17-methanobenzo[6,7]thiepino[4,5-c]pyrido[1,2-f][1]oxa[5,6,9]triazacyclotridecine-11,13-dione]	> 0.1	> 0.05
CC[C@H]1CCCOc2c(ccc(F)c2F)[C@@H](c2ccccc2)N2CN1C(=O)c1c(O)c(=O)ccn12 (single isomer, unassigned) [Compound 164A, (9*S,18*R)-9-ethyl-3,4-difluoro-12-hydroxy-18-phenyl-6,7,8,9-tetrahydro-18H-10,17-methanobenzo[b]pyrido[1,2-f][1]oxa[5,6,9]triazacyclotridecine-11,13-dione]	> 0.1	> 0.05
CC[C@@H]1CCCOc2c(ccc(F)c2F)[C@H](c2ccccc2)N2CN1C(=O)c1c(O)c(=O)ccn12 (single isomer, unassigned) [Compound 164B, (9*R,18*S)-9-ethyl-3,4-difluoro-12-hydroxy-18-phenyl-6,7,8,9-tetrahydro-18H-10,17-methanobenzo[b]pyrido[1,2-f][1]oxa[5,6,9]triazacyclotridecine-11,13-dione]	> 0.1	0.0024
O=C1c2c(O)c(=O)ccn2N2CN1C/C=C\COc1c(ccc(F)c1F)[C@H]2c1ccccc1C(F)F (single isomer, unassigned) [Compound 165A, (18*R,Z)-18-(2-(difluoromethyl)phenyl)-3,4-difluoro-12-hydroxy-6,9-dihydro-18H-10,17-methanobenzo[b]pyrido[1,2-f][1]oxa[5,6,9]triazacyclotridecine-11,13-dione]	> 0.1	0.0072
O=C1c2c(O)c(=O)ccn2N2CN1C/C=C\COc1c(ccc(F)c1F)[C@@H]2c1ccccc1C(F)F (single isomer, unassigned) [Compound 165B, (18*S,*Z)-18-(2-(difluoromethyl)phenyl)-3,4-difluoro-12-hydroxy-6,9-dihydro-18H-10,17-methanobenzo[b]pyrido[1,2-f][1]oxa[5,6,9]triazacyclotridecine-11,13-dione]	> 0.1	> 0.05
O=C1c2c(O)c(=O)ccn2N2CN1C1(/C=C/COc3cc(F)c(F)c4c3[C@@H]2c2ncccc2SC4)CCC1 (single isomer, unassigned) [Compound 168A, (21a′*R,*E)-24′,25′-difluoro-16′-hydroxy-6′,21a′-dihydro-10′H-spiro[cyclobutane-1,13′-[7,8](epiprop[1]en[1]yl[3]ylidene)[14,21]methanopyrido[1,2-f]pyrido[2′,3′:6,7]thiepino[4,5-c][1]oxa[5,6,9]triazacyclotridecine]-15′,17′-dione]	> 0.1	> 0.05
CC(C)[C@H]1/C=C/COc2cc(F)c(F)c3c2[C@@H](c2ccccc2SC3)N2CN1C(=O)c1c(O)c(=O)ccn12 (single isomer, unassigned) [Compound 169AA, (9*S,17a*S,*E)-24,25-difluoro-12-hydroxy-9-isopropyl-2,6,9,17a-tetrahydro-3,4-(epiprop[1]en[1]yl[3]ylidene)-10,17-methanobenzo[6,7]thiepino[4,5-c]pyrido[1,2-f][1]oxa[5,6,9]triazacyclotridecine-11,13-dione]	> 0.1	0.048
CC(C)[C@@H]1/C=C/COc2cc(F)c(F)c3c2[C@@H](c2ccccc2SC3)N2CN1C(=O)c1c(O)c(=O)ccn12 (single isomer, unassigned) [Compound 169AB, (9*R,17a*S,*E)-24,25-difluoro-12-hydroxy-9-isopropyl-2,6,9,17a-tetrahydro-3,4-(epiprop[1]en[1]yl[3]ylidene)-10,17-methanobenzo[6,7]thiepino[4,5-c]pyrido[1,2-f][1]oxa[5,6,9]triazacyclotridecine-11,13-dione]	> 0.1	> 0.05
CC(C)[C@@H]1/C=C/COc2cc(F)c(F)c3c2[C@H](c2ccccc2SC3)N2CN1C(=O)c1c(O)c(=O)ccn12 (single isomer, unassigned) [Compound 169BB, (9*R,17a*R,*E)-24,25-difluoro-12-hydroxy-9-isopropyl-2,6,9,17a-tetrahydro-3,4-(epiprop[1]en[1]yl[3]ylidene)-10,17-methanobenzo[6,7]thiepino[4,5-c]pyrido[1,2-f][1]oxa[5,6,9]triazacyclotridecine-11,13-dione]	> 0.1	0.0013
CC[C@H]1/C=C/COc2c(ccc(Cl)c2F)[C@H](c2ccccc2)N2CN1C(=O)c1c(O)c(=O)ccn12 (single isomer, unassigned) [Compound 170AA, (9*S,18*S,E)-3-chloro-9-ethyl-4-fluoro-12-hydroxy-18-phenyl-6,9-dihydro-18H-10,17-methanobenzo[b]pyrido[1,2-f][1]oxa[5,6,9]triazacyclotridecine-11,13-dione]	> 0.1	> 0.05
CC[C@@H]1/C=C/COc2c(ccc(Cl)c2F)[C@H](c2ccccc2)N2CN1C(=O)c1c(O)c(=O)ccn12 (single isomer, unassigned) [Compound 170AB, (9*R,18*S,E)-3-chloro-9-ethyl-4-fluoro-12-hydroxy-18-phenyl-6,9-dihydro-18H-10,17-methanobenzo[b]pyrido[1,2-f][1]oxa[5,6,9]triazacyclotridecine-11,13-dione]	> 0.1	> 0.05
Cc1cccnc1[C@@H]1c2ccc(F)c(F)c2OC/C=C/C2(CCC2)N2CN1n1ccc(=O)c(O)c1C2=O (single isomer, unassigned) [Compound 171A, (18′*S,*E)-3′,4′-difluoro-12′-hydroxy-18′-(3-methylpyridin-2-yl)-6′H,18′H-spiro[cyclobutane-1,9′-[10,17]methanobenzo[b]pyrido[1,2-f][1]oxa[5,6,9]triazacyclotridecine]-11′,13′-dione]	> 0.1	0.0013
O=C1c2c(O)c(=O)ccn2N2CN1C1(/C=C/COc3c(ccc(F)c3F)[C@@H]2c2ccccn2)CCC1 (single isomer, unassigned) [Compound 172B, (18′*R,*E)-3′,4′-difluoro-12′-hydroxy-18′-(pyridin-2-yl)-6′H,18′H-spiro[cyclobutane-1,9′-[10,17]methanobenzo[b]pyrido[1,2-f][1]oxa[5,6,9]triazacyclotridecine]-11′,13′-dione]	> 0.1	> 0.05
O=C1c2c(O)c(=O)ccn2N2CN1[C@@H]1C[C@@H]1CCOc1cccc3c1[C@@H]2c1ccccc1SC3 (stereo in doubt) [Compound 166A, cis-(11a*RS,12a*RS,13S,20a*R)-15-hydroxy-6,11,11a,12,12a,20a-hexahydro-10H-7,8-(epiprop[1]en[1]yl[3]ylidene)-13,20-methanobenzo[6,7]thiepino[4,5-c]cyclopropa[j]pyrido[1,2-f][1]oxa[5,6,9]triazacyclotridecine-14,16-dione]	> 0.1	> 0.05
O=C1c2c(O)c(=O)ccn2N2CN1CCC=CCc1ccccc1C2c1ccccc1 (stereo not drawn) [Compound 1, 4-hydroxy-16-phenyl-7,8,11,16-tetrahydro-6,17-methanobenzo[k]pyrido[1,2-b][1,2,5]triazacyclotridecine-3,5-dione]	> 2	0.043
O=C1c2c(O)c(=O)ccn2N2CN1CCCCCCc1ccccc1C2c1ccccc1 (stereo not drawn) [Compound 2, 15-hydroxy-2-phenyl-12,13,14,16-tetrahydro-11H-1(1,3)-pyrido[2,1-f][1,2,4]triazina-3(1,2)-benzenacyclononaphane-14,16-dione]	> 20	0.354
O=C1c2c(O)c(=O)ccn2N2CN1CCCCCc1ccccc1C2c1ccccc1 (stereo not drawn) [Compound 4, 4-hydroxy-16-phenyl-7,8,9,10,11,16-hexahydro-6,17-methanobenzo[k]pyrido[1,2-b][1,2,5]triazacyclotridecine-3,5-dione]	> 4	0.048
